Reference: patent publication US12281149B2, “Modulators of G-protein coupled receptors” (priority 2021, dated 2025)
Where two headings read alike, the source gives them in different places. *1 amine or outer side, *2 acyl side, *3 side chain or, on linkers, in order; H or OH if unused. Where a SMILES comes first, the peptide text is derived from it. Side-chain parts run from the residue outwards. [ ]: non-standard residue; d: D form. The star is where a group is joined. C20 diacid = O=C(O)CCCCCCCCCCCCCCCCCCC(=O)*; αMePhe(2-F) = C[C@](N)(Cc1ccccc1F)C(=O)O; γGlu = O=C(O)[C@H](CCC(=O)[*:2])N[*:1]; X27 = O=C1CC(C(=O)*)(c2ccccc2)CN1; X60 = O=C(C1(c2cccnc2)CCCC1)*; X66 = NC(=O)C1(C(=O)*)CCC1; AEEA = NCCOCCOCC(=O)O; Aib = CC(C)(N)C(=O)O; GABA = NCCCC(=O)O; βAla = NCCC(=O)O

Assays:
GLP-1 receptor = GLP-1 receptor (Homo sapiens, UniProt P43220); experiment: HitHunter cAMP assay, GLP-1 receptor; format: cell-based; details: read-out: Emax GLP-1R
Sequence of GLP-1 receptor (P43220 24-463): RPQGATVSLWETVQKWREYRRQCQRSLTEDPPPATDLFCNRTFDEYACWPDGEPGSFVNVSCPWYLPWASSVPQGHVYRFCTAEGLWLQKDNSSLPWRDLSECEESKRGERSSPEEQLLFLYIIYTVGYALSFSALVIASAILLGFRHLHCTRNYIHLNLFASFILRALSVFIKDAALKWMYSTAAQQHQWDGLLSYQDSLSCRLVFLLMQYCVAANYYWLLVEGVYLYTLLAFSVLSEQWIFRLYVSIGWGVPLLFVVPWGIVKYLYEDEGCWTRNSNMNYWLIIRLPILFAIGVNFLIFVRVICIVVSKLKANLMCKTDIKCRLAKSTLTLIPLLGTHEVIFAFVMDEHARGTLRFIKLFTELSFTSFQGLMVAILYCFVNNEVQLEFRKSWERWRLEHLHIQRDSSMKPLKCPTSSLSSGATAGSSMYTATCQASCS

GIP receptor = target: T1, GIP receptor (Homo sapiens, UniProt P48546); experiment: HitHunter cAMP assay, GIP receptor; format: cell-based; details: read-out: Emax GIP-1R
T1 sequence (P48546 22-466): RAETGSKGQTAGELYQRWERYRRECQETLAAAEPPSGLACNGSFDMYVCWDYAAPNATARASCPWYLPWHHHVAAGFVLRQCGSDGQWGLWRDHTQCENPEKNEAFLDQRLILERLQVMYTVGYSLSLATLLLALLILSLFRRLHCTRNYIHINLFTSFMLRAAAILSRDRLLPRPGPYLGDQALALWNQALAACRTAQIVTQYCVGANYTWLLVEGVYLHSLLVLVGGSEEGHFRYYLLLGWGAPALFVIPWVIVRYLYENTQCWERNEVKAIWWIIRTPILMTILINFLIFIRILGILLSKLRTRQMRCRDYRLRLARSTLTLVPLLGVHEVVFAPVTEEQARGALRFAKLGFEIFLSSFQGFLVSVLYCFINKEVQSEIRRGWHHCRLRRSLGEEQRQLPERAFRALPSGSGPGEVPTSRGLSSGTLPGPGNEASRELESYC

[1] = CHO cells, cAMP, normalized to maximum signal from GLP-1 (high) and DMSO (low)
[2] = CHO cells, cAMP, normalized to maximum signal from GIP (high) and DMSO (low)

Row | Structure (SMILES) | Emax (GLP-1 receptor; [1]) [%] | Emax (GIP receptor; [2]) [%] | Emax (GLP-1 receptor; CHO) [%] | Emax (GIP receptor; CHO) [%]
1 | CC[C@H](C)[C@H](NC(=O)[C@H](CC(C)C)NC(=O)[C@H](Cc1c[nH]c2ccccc12)NC(=O)[C@H](CCC(N)=O)NC(=O)[C@@H](NC(=O)[C@H](Cc1ccccc1)NC(=O)[C@H](C)NC(=O)[C@H](CCCCNC(=O)COCCOCCNC(=O)COCCOCCNC(=O)CC[C@H](NC(=O)CCCCCCCCCCCCCCCCCCC(=O)O)C(=O)O)NC(=O)[C@H](CCC(N)=O)NC(=O)[C@H](C)NC(=O)[C@@H](NC(=O)[C@H](CCCCN)NC(=O)[C@H](CC(=O)O)NC(=O)[C@H](CC(C)C)NC(=O)C(C)(C)NC(=O)[C@@H](NC(=O)[C@H](CO)NC(=O)[C@H](Cc1ccc(O)cc1)NC(=O)[C@H](CC(=O)O)NC(=O)[C@H](CO)NC(=O)[C@@H](NC(=O)[C@H](Cc1ccccc1)NC(=O)[C@@H](NC(=O)CNC(=O)[C@H](CCC(=O)O)NC(=O)CCCNC(=O)C1(c2ccccc2)CNC(=O)C1)[C@@H](C)O)[C@@H](C)O)[C@@H](C)CC)[C@@H](C)CC)C(C)C)C(=O)N[C@@H](C)C(=O)NCC(=O)NCC(=O)N1CCC[C@H]1C(=O)N[C@@H](CO)C(=O)N[C@@H](CO)C(=O)NCC(=O)N[C@@H](C)C(=O)N1CCC[C@H]1C(=O)N1CCC[C@H]1C(=O)N1CCC[C@H]1C(=O)N[C@@H](CO)C(N)=O (stereo partly drawn) [Compound 249] ({X27-GABA}-EGTFTSDYSI[Aib]LDKIAQK([AEEA-AEEA-γGlu-C20 diacid])AFVQWLIAGGPSSGAPPPS-NH2; C-terminus assumed) | 97 | 104 | – | –
2 | CC[C@H](C)[C@H](NC(=O)[C@H](CC(C)C)NC(=O)[C@H](Cc1c[nH]c2ccccc12)NC(=O)[C@H](CCC(N)=O)NC(=O)[C@@H](NC(=O)[C@H](Cc1ccccc1)NC(=O)[C@H](C)NC(=O)[C@H](CCCCNC(=O)COCCOCCNC(=O)COCCOCCNC(=O)CC[C@H](NC(=O)CCCCCCCCCCCCCCCCCCC(=O)O)C(=O)O)NC(=O)[C@H](CCC(N)=O)NC(=O)[C@H](C)NC(=O)[C@@H](NC(=O)[C@H](CCCCN)NC(=O)[C@H](CC(=O)O)NC(=O)[C@H](CC(C)C)NC(=O)C(C)(C)NC(=O)[C@@H](NC(=O)[C@H](CO)NC(=O)[C@H](Cc1ccc(O)cc1)NC(=O)[C@H](CC(=O)O)NC(=O)[C@H](CO)NC(=O)[C@@H](NC(=O)[C@](C)(Cc1ccccc1F)NC(=O)[C@@H](NC(=O)CNC(=O)[C@H](CCC(=O)O)NC(=O)CCNC(=O)C1(c2cccnc2)CCCC1)[C@@H](C)O)[C@@H](C)O)[C@@H](C)CC)[C@@H](C)CC)C(C)C)C(=O)N[C@@H](C)C(=O)NCC(N)=O [Compound 226] ({X60-βAla}-EGT[αMePhe(2-F)]TSDYSI[Aib]LDKIAQK([AEEA-AEEA-γGlu-C20 diacid])AFVQWLIAG-NH2; N-terminus and C-terminus assumed) | 104 | 102 | – | –
3 | CC[C@H](C)[C@H](NC(=O)[C@H](CC(C)C)NC(=O)[C@H](Cc1c[nH]c2ccccc12)NC(=O)[C@H](CCC(N)=O)NC(=O)[C@@H](NC(=O)[C@H](Cc1ccccc1)NC(=O)[C@H](C)NC(=O)[C@H](CCCCNC(=O)COCCOCCNC(=O)COCCOCCNC(=O)CC[C@H](NC(=O)CCCCCCCCCCCCCCCCCCC(=O)O)C(=O)O)NC(=O)[C@H](CCC(N)=O)NC(=O)[C@H](C)NC(=O)[C@@H](NC(=O)[C@H](CCCCN)NC(=O)[C@H](CC(=O)O)NC(=O)[C@H](CC(C)C)NC(=O)C(C)(C)NC(=O)[C@@H](NC(=O)[C@H](CO)NC(=O)[C@H](Cc1ccc(O)cc1)NC(=O)[C@H](CC(=O)O)NC(=O)[C@H](CO)NC(=O)[C@@H](NC(=O)[C@H](Cc1ccccc1)NC(=O)[C@@H](NC(=O)CNC(=O)[C@H](CCC(=O)O)NC(=O)CCNC(=O)C1(C(N)=O)CCC1)[C@@H](C)O)[C@@H](C)O)[C@@H](C)CC)[C@@H](C)CC)C(C)C)C(=O)N[C@@H](C)C(=O)NCC(=O)NCC(=O)N1CCC[C@H]1C(=O)N[C@@H](CO)C(=O)N[C@@H](CO)C(=O)NCC(=O)N[C@@H](C)C(=O)N1CCC[C@H]1C(=O)N1CCC[C@H]1C(=O)N1CCC[C@H]1C(=O)N[C@@H](CO)C(N)=O [Compound 257] ({X66-βAla}-EGTFTSDYSI[Aib]LDKIAQK([AEEA-AEEA-γGlu-C20 diacid])AFVQWLIAGGPSSGAPPPS-NH2; C-terminus assumed) | – | – | 89 | 92
